This note sets out measurements from US10434128B2, “Composition comprising Ulmi cortex extracts for inhibiting ovotoxicity” (DONGGUK UNIVERSITY GYEONGJU CAMPUS INDUSTRY-ACADEMY …, priority 2017, dated 2019).

Series [1] deals with CHO-K1 cells. The series is described as follows: Cell morphology observation, VCD-induced cell damage. The conditions noted are these: 1.5 mM VCD, 24 hours. The class given is cell-based, Chinese hamster. As for the experimental part: Through cell morphological changes, it was confirmed whether the Ulmi cortex extract protected CHO-K1 cells from cell damage induced by VCD.
First, cells were distributed into a 96-well plate at a density of 1×10^4 cells/well, and the cells were cultured until the next day, followed by serum starvation for 4 hours. Subsequently, the cells were pre-treated with 300 μg/ml of the Ulmi cortex extract for 4 hours and treated with 1.5 mM VCD, and then incubated at 37° C. under 5% CO2 for 24 hours, and the cells were observed using an optical microscope (Nikon, Japan).

Series [2] has as its system B6C3F1 female mice. The series is described as follows: VCD-induced premature ovarian failure animal model. The conditions noted are these: VCD 160 mg/kg/day i.p. five times a week, 2 weeks.
Experimental: B6C3F1 female mice at the age of 3 weeks (10 g to 12 g) from the same date of birth (DOB) as an experimental animal were purchased from the Central Lab Animal Inc., were adapted to a laboratory environment while sufficiently fed feed and water, and then used in an experiment. The laboratory environment was maintained at a temperature of 22±2° C. and a 12-hour day/12-hour night cycle was maintained until the experiment was completed. […]
Body weight changes were observed every week, based on the body weight measured on the start day of the experiment (day 1). […] One ovary was removed and the ovarian weight was measured and an ovarian weight index was calculated as a ratio of the measured ovarian weight with respect to the body weight immediately before sacrifice.
The subject of series [3] is PARP and caspase-3. Kind of series: Western blot of apoptosis proteins in CHO-K1 cells with VCD-induced ovotoxicity. The class given is cell-based, Chinese hamster. The settings on record: 1.5 mM VCD; compared to a control. Here is the method: As confirmed in Example 4, when CHO-K1 cells were treated with VCD, apoptosis occurred. To examine an effect of pretreatment with the Ulmi cortex extract (300 μg/ml), proteins associated with apoptosis, i.e., poly(ADP-ribosyl) polymerase (PARP) and caspase-3, were identified through western blot analysis.
As described in Example 5-1, a protein sample was collected from CHO-K1 cells pretreated with 300 μg/ml of the Ulmi cortex extract for […] and treated with 1.5 mM VCD. For this, the cells treated with VCD were washed three times with PBS, RIPA buffer was added thereto, and the resulting cells were allowed to react at 4° C. for 30 minutes and then centrifuged at 12,000 rpm for 30 minutes to collect a supernatant, and proteins were extracted therefrom. Subsequently, the same amount of the proteins were separated on a sodium dodecyl sulfate-polyacrylamide gel electrophoresis (SDS-PAGE), and then transferred to a PVDF membrane. To block non-specific binding, the membrane was treated with a blocking buffer (5% skim milk) for 1 hour, and washed with a PBST solution containing 0.1% Tween 20. Thereafter, the membrane was allowed to react with primary antibodies against PARP and caspase-3 at 4° C. overnight. […]
A general note: A western blot detects proteins with antibodies after separation by electrophoresis.

With `C1CC2OC2CC1C1CO1` (centres unmarked) [VCD, 4-vinylcyclohexene diepoxide], the “cell morphology, group treated only with VCD” value in series [1] is “apoptosis was observed”. Besides, in series [2], the “ovarian weight index, negative control (VCD) vs normal group” value is on record as “significant decrease compared to the normal group”; the “sizes of the ovary and the uterus, negative control (VCD)” value is “significantly decreased”. Further, in series [3], the “proform band of PARP, treated only with VCD” value is reported as “decreased” and the “proform band of caspase-3, treated only with VCD” value is “became pale”.
